Data reported in the supplement of paper PMC10307832.

Tests used:
Assay in all cases: relative viability (nuclei count vs DMSO), 5 days (fraction); higher = more cells survive
[1] = compound: C1CNCCC1C2=CC(=NN2)C3=CC=NC=C3 + CC(=O)Nc1cccc(-n2c(=O)n(C3CC3)c(=O)c3c(Nc4ccc(I)cc4F)n(C)c(=O)c(C)c32)c1 [Trametinib] (partner 0.02 µM)
In short: (§1)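 Relative viability was taken as the ratio of nuclei in treated wells to nuclei in vehicle wells. Lung cancer cell lines in 1536-well plates received compounds by pin tool one day after seeding, either one drug alone or a fixed anchor-drug dose plus five library-drug doses (not always all listed) in √10 steps. Nuclei were counted on 4× images after 5 days of treatment, and values are medians of duplicate plates.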

[2] = compound: C1CNCCC1C2=CC(=NN2)C3=CC=NC=C3 + COc1cccc2cc(-c3nc([C@H]4CC[C@H](C(=O)O)CC4)n4ncnc(N)c34)[nH]c12 [OSI-027] (partner 0.5 µM)
In short: as §1

Tanzisertib + Linsitinib = compound: O[C@H]1CC[C@H](Nc2ncc3nc(Nc4c(F)cc(F)cc4F)n([C@H]4CCOC4)c3n2)CC1 [Tanzisertib] + C[C@]1(O)C[C@@H](c2nc(-c3ccc4ccc(-c5ccccc5)nc4c3)c3c(N)nccn32)C1 [Linsitinib] (partner 1 µM)
In short: as §1

Tanzisertib + Tozasertib = compound: O[C@H]1CC[C@H](Nc2ncc3nc(Nc4c(F)cc(F)cc4F)n([C@H]4CCOC4)c3n2)CC1 [Tanzisertib] + Cc1cc(Nc2cc(N3CCN(C)CC3)nc(Sc3ccc(NC(=O)C4CC4)cc3)n2)n[nH]1 [Tozasertib] (partner 0.1 µM)
In short: as §1

Cell Line	relative viability ([1]; first compound 0.08 µM)	relative viability ([1]; first compound 0.8 µM)	relative viability ([1]; first compound 2.53 µM)	relative viability ([1]; first compound 8 µM)	relative viability ([2]; first compound 0.08 µM)	relative viability ([2]; first compound 0.8 µM)	relative viability ([2]; first compound 2.53 µM)	relative viability ([2]; first compound 8 µM)	relative viability (Tanzisertib + Linsitinib; first compound 0.08 µM)	relative viability (Tanzisertib + Linsitinib; first compound 0.253 µM)	relative viability (Tanzisertib + Linsitinib; first compound 0.8 µM)	relative viability (Tanzisertib + Linsitinib; first compound 2.53 µM)	relative viability (Tanzisertib + Linsitinib; first compound 8 µM)	relative viability (Tanzisertib + Tozasertib; first compound 0.08 µM)	relative viability (Tanzisertib + Tozasertib; first compound 0.8 µM)	relative viability (Tanzisertib + Tozasertib; first compound 2.53 µM)	relative viability (Tanzisertib + Tozasertib; first compound 8 µM)	relative viability (Tanzisertib + Tozasertib; first compound 0.253 µM)
NCI-H2347	0.264	0.266	0.326	0.262	0.494	0.291	0.442	0.487	1.08	0.973	1.08	1.09	1.3	0.569	0.664	0.682	0.365	
NCI-H2405	0.588	0.631	0.638	0.615	0.72	0.627	0.731	0.674	0.954	0.881	0.968	0.904	0.702	0.784	0.844	0.823	0.73	0.744
NCI-H3122	0.207	0.222	0.209	0.238	0.856	1.02	1.05	0.981	1.03	1.05	1.09	0.898	1.03	0.465	0.497	0.399	0.377	0.393
PC-3 [JPC-3]	0.637	0.718	0.734	0.684	0.827	0.776	0.835	0.705	1.05	0.957	0.963	0.963	0.899	0.903	0.943	0.852	0.781	0.99
PC-14	0.64	0.761	0.903	0.763	0.722	1.12	0.986	0.822	1	0.987	0.885	0.942	0.572	0.652	0.54	0.537	0.499	0.605
RERF-LC-KJ	0.837	0.83	0.966	0.858	0.537	0.521	0.581	0.576	0.942	0.834	0.971	0.862	0.877	0.386	0.61	0.383	0.442	0.554
SK-LU-1	0.449	0.445	0.541	0.528	0.386	0.346	0.346	0.342	1.16	1.15	1.14	1.17	1.23	0.33	0.263	0.309	0.319	0.316
SK-MES-1	0.553	0.549	0.542	0.578	0.51	0.565	0.624	0.593	1.08	1.06	1.06	1.12	0.832	0.971	0.991	0.951	0.992	0.889
SW 1573		0.6	0.556	0.622		0.666	0.727	0.752	0.968	0.85	0.703	0.753	0.672	0.174	0.151	0.204	0.139	0.185
